Measurements: ChEMBL document CHEMBL1201862, “PubChem BioAssay data set” (2004)
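Growth conditions: 96-well plates. Treatment: test compound, 48 hours, 5 concentrations. Analysis: linear interpolation between bracketing concentrations; unreached endpoints set to highest concentration. GI50 is the concentration that inhibits growth by half.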 Active and inactive are the calls of the source. No stated cut-off is given here; in the data, active = GI50 up to about 1.1 µM and inactive = higher.

Tests used:
Test in all cases: growth of human tumour cells (NCI), 48 h
[1] = tested on: DLD-1
[2] = tested on: DMS-114
[3] = tested on: KM-20L2
[4] = tested on: LXFL 529
[5] = tested on: M19-MEL
[6] = tested on: 786-0
[7] = tested on: HOP-18
[8] = tested on: RXF 631
[9] = tested on: DU-145

In the case of `Cn1c(=O)c2nc(N3CCOCC3)cnc2n(C)c1=O`, the GI50 [1] is reported as > 100 µM (inactive), the GI50 [2] is reported as > 100 µM (inactive) and the GI50 [3] is reported as > 100 µM (inactive). The GI50 [4] was > 100 µM (inactive) and the GI50 [5] was > 100 µM (inactive).
With `C=CCN(N=O)C(=O)N(CCC)CCCCC(NC(C)=O)C(=O)NCc1ccccc1` (stereo unspecified) the GI50 [6] was > 100 µM (inactive), the GI50 [2] was 59.2 µM (inactive) and the GI50 [7] was > 100 µM (inactive). The GI50 [3] was 91.6 µM (inactive), the GI50 [4] was 62.5 µM (inactive) and the GI50 [5] was 56 µM (inactive). For the same compound, the GI50 [8] was > 100 µM (inactive).
In the case of `Nc1nc(N)c2c(n1)NC(=O)c1c(c3ccccc3n1Cc1ccc(Cl)cc1)C2`, the GI50 [9] is reported as 14.4 µM (inactive).
`Fc1ccc(C(OCCN2CCC3CCC(C2)N3Cc2cc3ccccc3[nH]2)c2ccc(F)cc2)cc1` (stereo unspecified) was tested, and the GI50 [6] was 1.65 µM (inactive) and the GI50 [9] was 1.85 µM (inactive).
For `CC(C)C1NC(=O)CC(c2ccccc2)N(N=O)C1c1ccccc1` (stereo unspecified), the GI50 [1] was > 100 µM (inactive), the GI50 [2] was > 95.7 µM (inactive) and the GI50 [7] was > 100 µM (inactive). The GI50 [3] was > 100 µM (inactive) and the GI50 [5] was > 100 µM (inactive).
In the case of `CC1OC2=N[C@@H]1C(=O)N[C@@H](Cc1ccccc1)C1=N[C@H](C(=O)N[C@@H](Cc3ccccc3)C3=N[C@H](C(=O)N[C@H]2Cc2ccccc2)C(C)O3)C(C)O1` (stereo partly specified), the GI50 [9] is reported as 57.9 µM (inactive).
With `CC1(C)C(=O)c2ccccc2OC1N1CCN(C2Oc3ccccc3C(=O)C2(C)C)CC1` (stereo unspecified) the GI50 [9] was > 100 µM (inactive).
`Cc1cccc2nc3c(C(=O)NCCN(C)C)cccc3cc12` was tested, and the GI50 [1] was 1.42 µM (inactive), the GI50 [2] was 1.31 µM (inactive) and the GI50 [7] was 2.04 µM (inactive). The GI50 [3] was 1.41 µM (inactive) and the GI50 [5] was 1.52 µM (inactive).
`O=C1NCN(c2ccccc2)C12CCN(CCCSc1ccc(F)cc1)CC2` was tested, and the GI50 [6] was 24.3 µM (inactive) and the GI50 [9] was 11 µM (inactive).
With `O=C1CCCCC[C@]12SC[C@H]1CON=C12` the GI50 [6] was 34 µM (inactive) and the GI50 [9] was 33.8 µM (inactive).
`COC(=O)c1c(O)ccc2c1c1c(n2Cc2cccc(C)c2)C(=O)c2ccccc2C1` was tested, and the GI50 [9] was 51.4 µM (inactive).
With `COc1ccc(C2C(Cl)C(=O)N2NC(=O)c2ccccc2O)cc1` (stereo unspecified) the GI50 [2] was > 100 µM (inactive), the GI50 [3] was > 100 µM (inactive) and the GI50 [4] was > 100 µM (inactive). For the same compound, the GI50 [5] was > 100 µM (inactive).
With `O=C1NCN(c2ccccc2)C12CCN(CCCN1CCN(CCOC(c3ccc(F)cc3)c3ccc(F)cc3)CC1)CC2` the GI50 [6] was 1.63 µM (inactive) and the GI50 [9] was 1.73 µM (inactive).
In the case of `CC(=O)OCCCCn1cc(Cn2ccc(=O)n(Cc3cn(CCCCOC(C)=O)nn3)c2=O)nn1`, the GI50 [6] is reported as > 100 µM (inactive) and the GI50 [9] is reported as > 100 µM (inactive).
For `c1ccc(COC2(OCc3ccccc3)CC3OC2C2NN=NC32)cc1` (stereo unspecified), the GI50 [6] was 20 µM (inactive), the GI50 [1] was 15.8 µM (inactive) and the GI50 [7] was 36.2 µM (inactive). The GI50 [3] was 54.6 µM (inactive), the GI50 [4] was 15.3 µM (inactive) and the GI50 [5] was 17.7 µM (inactive).
For `Cn1ccnc1C(O)(c1nccn1C)c1nccn1C`, the GI50 [1] was > 100 µM (inactive), the GI50 [2] was > 100 µM (inactive) and the GI50 [7] was 14.1 µM (inactive). For the same compound, the GI50 [4] was > 100 µM (inactive) and the GI50 [5] was > 100 µM (inactive).
In the case of `CCCCP1(=O)C=CC(Cl)=C(C)C1` (stereo unspecified), the GI50 [6] is reported as > 100 µM (inactive), the GI50 [1] is reported as > 100 µM (inactive) and the GI50 [7] is reported as > 100 µM (inactive). The GI50 [3] was > 100 µM (inactive), the GI50 [4] was > 100 µM (inactive) and the GI50 [5] was > 100 µM (inactive).
With `c1ccc(/N=C2\S/C(=N\C3CCCCC3)N(C3CCCCC3)\C2=N/c2ccccc2)cc1` the GI50 [9] was > 100 µM (inactive).
`C=CS(=O)(=O)c1c2cc(OC)ccc2nc2ccc(OC)cc12` was tested, and the GI50 [6] was 2.37 µM (inactive) and the GI50 [9] was 3.53 µM (inactive).
For `O=C1CSC(c2c(O)ccc3ccccc23)N1n1c(S)nnc(/C=C/c2c(O)ccc3ccccc23)c1=O` (stereo unspecified), the GI50 [6] was 0.662 µM (active) and the GI50 [9] was 2.01 µM (inactive).
`O=C1C(Cl)=C(c2ccc([N+](=O)[O-])cc2)C(=O)c2c(O)cccc21` was tested, and the GI50 [6] was 3.15 µM (inactive), the GI50 [1] was 1.16 µM (inactive) and the GI50 [2] was 0.202 µM (active). For the same compound, the GI50 [9] was 6.04 µM (inactive), the GI50 [7] was 0.573 µM (active) and the GI50 [4] was 0.273 µM (active). The GI50 [5] was 1.57 µM (inactive).
`Cc1nc(-c2cccnc2)sc1C(=O)CC(=O)C(=O)Nc1cccc(NC(=O)C(=O)CC(=O)c2sc(-c3cccnc3)nc2C)n1` was tested, and the GI50 [6] was > 100 µM (inactive) and the GI50 [9] was > 100 µM (inactive).
`CC1(C)CCC(C)(C)c2c1ccc(O)c2Cc1c(O)ccc2c1C(C)(C)CCC2(C)C` was tested, and the GI50 [6] was 1.92 µM (inactive) and the GI50 [9] was 2.23 µM (inactive).
With `COc1cc(C2c3cc4c(cc3OC3(O)COC(=O)C23)OCO4)cc(OC)c1OC` (stereo unspecified) the GI50 [1] was 45.9 µM (inactive), the GI50 [2] was 34.7 µM (inactive) and the GI50 [7] was > 100 µM (inactive). For the same compound, the GI50 [3] was 24.3 µM (inactive), the GI50 [4] was 39.8 µM (inactive) and the GI50 [5] was 56.6 µM (inactive). For the same compound, the GI50 [8] was 49.3 µM (inactive).
`Cc1cc(Cl)ccc1NC1=NC(=O)C(CC(=O)Nc2cccc(Cl)c2)S1` (stereo unspecified) was tested, and the GI50 [6] was 46.8 µM (inactive), the GI50 [1] was 21.7 µM (inactive) and the GI50 [2] was 12.1 µM (inactive). The GI50 [7] was > 100 µM (inactive), the GI50 [3] was 26.5 µM (inactive) and the GI50 [4] was 39.9 µM (inactive). The GI50 [5] was 43.9 µM (inactive).
For `CN(C)CCNC(=O)c1cccc2[nH]c(-c3ccc(Cl)cc3)nc12`, the GI50 [1] was 4.8 µM (inactive), the GI50 [2] was 8.61 µM (inactive) and the GI50 [7] was 14.4 µM (inactive). For the same compound, the GI50 [3] was 5.14 µM (inactive) and the GI50 [5] was 6.98 µM (inactive).
For `COC(=O)C1CCC(=O)N1C(=O)Cc1ccc(OC)cc1` (stereo unspecified), the GI50 [2] was > 100 µM (inactive), the GI50 [3] was > 100 µM (inactive) and the GI50 [4] was > 100 µM (inactive). For the same compound, the GI50 [5] was > 100 µM (inactive).
In the case of `COC(=O)C1CC=C(SC(=O)c2ccccc2)N1C(=O)c1ccccc1` (stereo unspecified), the GI50 [6] is reported as > 100 µM (inactive) and the GI50 [9] is reported as > 100 µM (inactive).
For `CCCn1cc2c(O)nc(SC)nc2n1`, the GI50 [1] was > 100 µM (inactive), the GI50 [2] was 91.6 µM (inactive) and the GI50 [7] was 28.8 µM (inactive). For the same compound, the GI50 [4] was > 100 µM (inactive).
In the case of `CO/C=C1\OC(=O)C=C1OC`, the GI50 [1] is reported as > 100 µM (inactive), the GI50 [2] is reported as > 100 µM (inactive) and the GI50 [7] is reported as > 100 µM (inactive). The GI50 [5] was > 100 µM (inactive).
